Results: PMC11790914, “Chemogenomics for steroid hormone receptors (NR3)” (Communications Chemistry, 2025)
Values joined by “and” are separate entries in the source; they are usually repeats but may differ in a detail not shown here. Equal values may be shown once.

Key:
HEK293T cells [1] = assay: Cytotoxicity: necrosis induction (red fluorescent dye for permeable plasma membranes); type: cell-based; details: 1 µM, 24 h, necrotic cell count normalized to 0.1% DMSO, single replicates;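 further: compounds applied in DMEM high glucose with 0.1% FCS and 0.1% DMSO, necrotic HEK293T cells counted by red staining of cells whose plasma membranes had become permeable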
HEK293T cells [2] = assay: Cytotoxicity: metabolic activity (WST-8 / CCK-8 assay); details: 1 µM; HEK293T, 24 h; WST-8; normalized to 0.1% DMSO; single replicates
FGFR3 = molecular target: T1, FGFR3 (Homo sapiens, UniProt P22607); assay: Liability panel screening by DSF: FGFR3; type: binding; details: DSF, 20 µM, n=2; read-out: Mean ΔTM FGFR3
T1 construct: made in house
Summary of the method: (§1)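 ∆Tm in K was taken from Boltzmann-fitted unfolding inflection points, run in duplicate with a temperature ramp of 3 °C per minute up to 85 °C. Each recombinant protein (2 µM) was in HEPES 10 mM pH 7.5 and NaCl 500 mM, with SYPRO Orange dye at 1:1000.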

CSNK1D = molecular target: T2, CSNK1D (Homo sapiens, UniProt P48730); assay: Liability panel screening by DSF: CSNK1D; type: binding; details: DSF, 20 µM, n=2; read-out: Mean ΔTM CSNK1D
T2 construct: made in house
Summary of the method: as §1

BRPF1 = molecular target: T3, BRPF1 (Homo sapiens, UniProt P55201); assay: Liability panel screening by DSF: BRPF1; type: binding; details: DSF, 20 µM, n=2; read-out: Mean ΔTM BRPF1
T3 construct: This panel comprised ten highly ligandable kinases and bromodomains; made in house
T3 sequence (P55201 628-732 limits assumed): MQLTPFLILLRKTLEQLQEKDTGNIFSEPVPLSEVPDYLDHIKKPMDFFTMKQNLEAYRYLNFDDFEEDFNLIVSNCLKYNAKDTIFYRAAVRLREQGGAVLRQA
Summary of the method: as §1

CDK2 = molecular target: T4, CDK2 (Homo sapiens, UniProt P24941); assay: Liability panel screening by DSF: CDK2; type: binding; details: DSF, 20 µM, n=2; read-out: Mean ΔTM CDK2
T4 construct: made in house
Summary of the method: as §1

HEK293T cells [3] = assay: Cytotoxicity: growth-rate (change in confluence over 24 h); details: 1 µM, normalized to 0.1% DMSO control, single replicates (n=1...)
TRIM24 = molecular target: T5, TRIM24 (Homo sapiens, UniProt O15164); assay: Liability panel screening by DSF: TRIM24; type: binding; details: DSF, 20 µM, n=2; read-out: Mean ΔTM TRIM24
T5 construct: This panel comprised ten highly ligandable kinases and bromodomains; made in house
T5 sequence (O15164 899-1004 limits assumed): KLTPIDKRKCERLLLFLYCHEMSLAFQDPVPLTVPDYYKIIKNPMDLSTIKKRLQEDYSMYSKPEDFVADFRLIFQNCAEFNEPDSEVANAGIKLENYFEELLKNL
Summary of the method: as §1

GSK3B = molecular target: T6, GSK3B (Homo sapiens, UniProt P49841); assay: Liability panel screening by DSF: GSK3B; type: binding; details: DSF, 20 µM, n=2; read-out: Mean ΔTM GSK3B
T6 construct: made in house

Gal4-VP16 = type: cell-based; details: 1 µM; vs. DMSO ctrl; single replicates n=1-3
Protocol: Five hours after transfection, the cells were incubated with the NR3 CG compound candidates at the recommended concentrations by changing the medium to Opti-MEM supplemented with penicillin (100 µ/mL) and streptomycin (100 µg/mL) additionally containing 0.1% DMSO and the respective test compound or 0.1% DMSO alone as untreated control. Firefly (reporter) and renilla (control) luminescence were measured after 14–16 h incubation using the Dual-Glo® Luciferase Assay System (Promega, Fitchburg, Wisconsin, USA; #E2980) according to manufacturer’s protocol on a Tecan Spark® 10M multimode microplate reader (Tecan Group AG, Männedorf, Switzerland). To obtain relative light units (RLU) firefly luminescence was divided by renilla luminescence and multiplied by 1000. Fold activation was obtained by dividing the mean RLU of a test sample by the mean RLU of the DMSO (0.1%) control. Experiments were performed in singlets in at least three biologically independent repeats.
are labeled according to their mode of action (yellow - agonist, grey - antagonist, grey with label D - degrader) and grouped by their
NR3 subfamily main targets.
reporter activity at the indicated concentrations expressed as mean fold reporter gene activity (n=3).

ABL1 = molecular target: T7, ABL1 (Homo sapiens, UniProt P00519); assay: Liability panel screening by DSF: ABL1; type: binding; details: DSF, 20 µM, n=2; read-out: Mean ΔTM ABL1
T7 construct: made in house
Summary of the method: as §1

BRD4 = molecular target: T8, BRD4 (Homo sapiens, UniProt O60885); assay: Liability panel screening by DSF: BRD4; type: binding; details: DSF, 20 µM, n=2; read-out: Mean ΔTM BRD4
T8 construct: This panel comprised ten highly ligandable kinases and bromodomains; made in house
Summary of the method: as §1

NR3C4 (AR) = details: cited from earlier work
[4] = test system: NF-κB activity in HEK293 NF-κB reporter cells; assay: NF-kB activity assay (GFP reporter, ionomycin/PMA); type: cell-based; details: for Mean NFκB response: n=3
Summary of the method: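 HEK293 NF-κB GFP reporter cells given compound in 0.1% DMSO for 4 h, then stimulated with ionomycin 100 ng/mL plus PMA 10 ng/mL. Imaged every 90 min over 24 h; GFP-positive cell count normalized to confluence, three independent biological replicates.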

AURKA = molecular target: T9, AURKA (Homo sapiens, UniProt O14965); assay: Liability panel screening by DSF: AURKA; type: binding; details: DSF, 20 µM, n=2; read-out: Mean ΔTM AURKA
T9 construct: made in house
T9 sequence (O14965 1-403): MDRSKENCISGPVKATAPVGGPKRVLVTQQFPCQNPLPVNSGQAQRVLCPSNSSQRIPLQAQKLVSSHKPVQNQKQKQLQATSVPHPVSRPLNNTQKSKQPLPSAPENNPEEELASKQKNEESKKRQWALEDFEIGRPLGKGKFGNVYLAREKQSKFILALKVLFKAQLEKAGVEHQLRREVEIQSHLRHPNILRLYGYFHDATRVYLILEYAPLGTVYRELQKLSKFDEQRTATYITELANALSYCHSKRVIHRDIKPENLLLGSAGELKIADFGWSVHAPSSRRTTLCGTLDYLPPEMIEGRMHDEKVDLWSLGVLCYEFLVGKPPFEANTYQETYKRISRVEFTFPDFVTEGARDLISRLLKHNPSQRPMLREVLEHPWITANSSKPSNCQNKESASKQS
Summary of the method: as §1

HEK293T cells [5] = assay: Cytotoxicity: apoptosis induction (caspase-3/7 DEVD fluorogenic DNA dye); details: 1 µM; HEK293T, 24 h; apoptotic cell count normalized to 0.1% DMSO; single replicates
Protocol: Cells were incubated with the test compounds at the indicated concentrations solubilized with 0.1% DMSO for 24 h. Growth-rate was determined based on the change in confluence over 24 h normalized to the change in confluence of cells treated with the 0.1% DMSO control (n = 10). Metabolic activity was determined with a water-soluble tetrazolium-8 (WST-8) assay (n = 8) after 24 h treatment. Apoptotic cells were detected with a fluorogenic DNA dye coupled to the caspase-3/7 recognition sequence (DEVD) after 24 h treatment and the apoptotic cell count was normalized to 0.1% DMSO treated cells (n = 6).
HEK293T cells (German Collection of Microorganisms and Cell Culture GmbH, DSMZ; #ACC305) were cultured in DMEM high glucose, supplemented with 10% fetal calf serum (FCS), sodium pyruvate (1 mM), penicillin (100 µ/mL) and streptomycin (100 µg/mL) at 37 °C and 5% (v/v) CO2, and seeded in pre-coated (10 µg/mL collagen G solution (Merck KgaA; #L7213) for 30 min at 37 °C) 96-well plates (2 × 10^5 cells per well). After 24 h, the cells were treated with the respective NR3 CG compound candidate at the recommended concentration, bexarotene (100 µM) or doxorubicin (30 µM) as positive controls in DMEM high glucose supplemented with 0.1% FCS, penicillin (100 µ/mL), streptomycin (100 µg/mL) and 0.1% DMSO, or 0.1% DMSO alone as an untreated control. Each sample was prepared in at least four biologically independent replicates. […] Thereafter, the medium was aspirated and the cells were incubated for 3 h with 90 µL DMEM high glucose supplemented with 0.2% FCS, penicillin (100 µ/mL) and streptomycin (100 µg/mL) and additionally containing 10 µL Cell Counting Kit 8 solution (CCK-8; MedChemExpress, Monmouth Junction, New York, USA; #HY-K0301), and absorbance was measured at 1 h, 2 h and 3 h of incubation at 450 nm on a Tecan Spark Cyto to assess metabolic activity of the cells. Before drug administration, after the first medium exchange, 24 h after drug administration, and after fluorescence imaging cell confluence was assessed using the Tecan Spark Cyto, to account for changes in cell confluence due to drug administration and cell handling. Compound effects on cell confluence, apoptosis, metabolic activity and necrosis were normalized to the vehicle control of each biological replicate individually.

MAPK1 = molecular target: T10, MAPK1 (Homo sapiens, UniProt P28482); assay: Liability panel screening by DSF: MAPK1; type: binding; details: DSF, 20 µM, n=2; read-out: Mean ΔTM MAPK1
T10 construct: made in house
Summary of the method: as §1

T2 sequence (P48730 whole entry, species assumed): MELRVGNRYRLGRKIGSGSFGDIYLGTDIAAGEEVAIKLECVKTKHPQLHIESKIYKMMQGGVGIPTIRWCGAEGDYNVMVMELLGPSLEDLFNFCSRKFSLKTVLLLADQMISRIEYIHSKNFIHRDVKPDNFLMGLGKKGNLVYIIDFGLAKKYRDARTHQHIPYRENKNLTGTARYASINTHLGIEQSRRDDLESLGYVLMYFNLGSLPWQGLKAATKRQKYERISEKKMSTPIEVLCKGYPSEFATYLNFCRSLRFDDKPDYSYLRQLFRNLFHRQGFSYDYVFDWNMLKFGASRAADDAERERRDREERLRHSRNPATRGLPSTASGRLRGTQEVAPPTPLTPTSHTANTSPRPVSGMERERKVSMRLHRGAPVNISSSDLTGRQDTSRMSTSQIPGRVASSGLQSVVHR
T1 sequence (P22607 23-806, species assumed): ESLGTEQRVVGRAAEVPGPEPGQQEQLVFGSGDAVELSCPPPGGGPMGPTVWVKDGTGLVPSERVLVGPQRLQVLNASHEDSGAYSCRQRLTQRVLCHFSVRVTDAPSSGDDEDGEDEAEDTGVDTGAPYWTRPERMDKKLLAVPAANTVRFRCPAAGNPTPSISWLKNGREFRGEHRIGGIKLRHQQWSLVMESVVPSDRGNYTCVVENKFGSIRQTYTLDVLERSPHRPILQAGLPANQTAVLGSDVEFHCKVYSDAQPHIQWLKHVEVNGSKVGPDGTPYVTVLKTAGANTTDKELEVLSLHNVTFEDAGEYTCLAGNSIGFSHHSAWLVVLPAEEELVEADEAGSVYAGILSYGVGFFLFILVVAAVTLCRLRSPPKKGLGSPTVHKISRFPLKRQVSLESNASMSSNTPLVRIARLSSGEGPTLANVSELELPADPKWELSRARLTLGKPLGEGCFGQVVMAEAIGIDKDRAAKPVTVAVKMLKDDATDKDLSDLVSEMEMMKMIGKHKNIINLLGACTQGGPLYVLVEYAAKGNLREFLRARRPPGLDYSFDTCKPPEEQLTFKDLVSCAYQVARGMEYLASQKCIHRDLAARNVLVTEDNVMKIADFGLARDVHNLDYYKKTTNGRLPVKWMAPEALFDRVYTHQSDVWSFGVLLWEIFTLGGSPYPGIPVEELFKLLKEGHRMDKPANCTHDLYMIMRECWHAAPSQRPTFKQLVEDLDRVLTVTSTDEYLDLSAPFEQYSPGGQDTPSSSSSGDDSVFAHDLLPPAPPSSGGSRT
T6 sequence (P49841 whole entry, species assumed): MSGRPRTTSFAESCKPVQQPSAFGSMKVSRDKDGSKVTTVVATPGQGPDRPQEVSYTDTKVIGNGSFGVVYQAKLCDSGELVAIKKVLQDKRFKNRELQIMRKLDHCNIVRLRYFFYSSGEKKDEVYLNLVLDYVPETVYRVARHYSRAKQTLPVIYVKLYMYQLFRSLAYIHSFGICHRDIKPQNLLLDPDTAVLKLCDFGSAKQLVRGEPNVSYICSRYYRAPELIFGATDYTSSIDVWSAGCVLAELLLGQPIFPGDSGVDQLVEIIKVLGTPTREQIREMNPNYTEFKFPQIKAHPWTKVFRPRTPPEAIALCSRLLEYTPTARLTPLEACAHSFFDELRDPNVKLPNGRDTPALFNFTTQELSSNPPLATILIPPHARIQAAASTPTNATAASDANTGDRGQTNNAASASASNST
T10 sequence (P28482 whole entry, species assumed): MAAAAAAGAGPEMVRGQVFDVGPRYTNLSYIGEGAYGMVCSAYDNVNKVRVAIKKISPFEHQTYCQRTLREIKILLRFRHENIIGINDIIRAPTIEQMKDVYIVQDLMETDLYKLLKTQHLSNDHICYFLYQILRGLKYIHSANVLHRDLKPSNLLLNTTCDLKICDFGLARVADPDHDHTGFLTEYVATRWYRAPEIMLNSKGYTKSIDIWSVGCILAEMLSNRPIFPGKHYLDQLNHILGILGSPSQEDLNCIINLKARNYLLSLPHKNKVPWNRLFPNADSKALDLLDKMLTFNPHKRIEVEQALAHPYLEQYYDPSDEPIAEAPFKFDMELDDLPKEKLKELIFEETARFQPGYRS
T7 sequence (P00519 whole entry, species assumed): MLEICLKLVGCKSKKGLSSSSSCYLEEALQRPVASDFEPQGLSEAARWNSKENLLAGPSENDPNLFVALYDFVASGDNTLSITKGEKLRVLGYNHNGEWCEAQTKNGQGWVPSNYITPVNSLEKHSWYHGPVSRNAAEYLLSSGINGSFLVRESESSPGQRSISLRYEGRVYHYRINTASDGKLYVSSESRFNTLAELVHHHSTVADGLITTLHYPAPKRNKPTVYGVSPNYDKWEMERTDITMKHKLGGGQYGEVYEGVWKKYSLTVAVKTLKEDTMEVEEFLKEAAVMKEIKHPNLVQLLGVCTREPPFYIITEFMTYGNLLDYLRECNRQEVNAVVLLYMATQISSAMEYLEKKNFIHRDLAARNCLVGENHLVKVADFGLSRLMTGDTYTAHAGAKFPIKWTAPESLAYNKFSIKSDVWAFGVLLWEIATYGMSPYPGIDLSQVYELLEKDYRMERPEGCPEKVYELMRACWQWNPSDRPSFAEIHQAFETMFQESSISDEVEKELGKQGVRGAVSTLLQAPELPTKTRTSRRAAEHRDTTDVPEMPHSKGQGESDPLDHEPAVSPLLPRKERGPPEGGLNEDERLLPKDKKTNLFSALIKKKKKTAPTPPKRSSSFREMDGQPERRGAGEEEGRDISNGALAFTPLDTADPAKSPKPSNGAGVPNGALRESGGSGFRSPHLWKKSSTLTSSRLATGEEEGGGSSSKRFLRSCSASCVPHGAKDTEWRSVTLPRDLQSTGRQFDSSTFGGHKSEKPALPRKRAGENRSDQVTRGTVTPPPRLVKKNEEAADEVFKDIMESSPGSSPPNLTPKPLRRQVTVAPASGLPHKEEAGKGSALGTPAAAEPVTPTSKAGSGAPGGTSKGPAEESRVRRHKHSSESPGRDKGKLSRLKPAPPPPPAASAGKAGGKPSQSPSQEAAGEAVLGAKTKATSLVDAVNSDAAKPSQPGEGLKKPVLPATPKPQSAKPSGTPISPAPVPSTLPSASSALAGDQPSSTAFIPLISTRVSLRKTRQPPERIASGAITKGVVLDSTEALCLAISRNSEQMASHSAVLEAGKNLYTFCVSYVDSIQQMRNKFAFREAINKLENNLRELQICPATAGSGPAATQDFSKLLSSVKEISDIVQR

CC(=O)O[C@]1(C(C)=O)CC[C@H]2[C@@H]3C=C(Cl)C4=CC(=O)[C@@H]5C[C@@H]5[C@]4(C)[C@H]3CC[C@@]21C [Cyproterone acetate]
Necrosis induction [NI] (HEK293T cells [1]): 0.92 and 0.81 and 0.87 and 0.98 | Metabolic activity [MA] (HEK293T cells [2]): 1.02 (2×) and 0.92 and 0.98 and 1.01 and 0.94 and 0.99 and 1.05 | ΔTm at 20 µM (FGFR3): 0.57 °C | ΔTm at 20 µM (CSNK1D): 0.16 °C | ΔTm at 20 µM (BRPF1): -1.28 °C | ΔTm at 20 µM (CDK2): 0.15 °C | Growth rate [GR] (HEK293T cells [3]): 1.11 and 1.76 and 1.28 and 1.77 and 1.08 and 0.80 (2×) and 0.94 and 0.96 and 1.44 | ΔTm at 20 µM (TRIM24): -1.08 °C | ΔTm at 20 µM (GSK3B): -0.72 °C | VP16 control [fold reporter gene activity] (Gal4-VP16): 1.23 fold reporter gene activity and 1.09 fold reporter gene activity and 0.95 fold reporter gene activity | ΔTm at 20 µM (ABL1): 0.36 °C | ΔTm at 20 µM (BRD4): -1.71 °C | rel. activity from literature, NR3C4 (AR): % rem. act. of DHT (NR3C4 (AR)): 52 ± 6% | IC50 (NR3C4 (AR); read-out: Potency [nM] IC50, NR3C4 (AR)): 26 ± 23 nM | Mean NFκB response ([4]; 1 µM, 1,5 h): 3306.11 GFP+-cells/confluence ∙ 1000 | Mean NFκB response ([4]; 1 µM, 4,5 h): 3956.53 GFP+-cells/confluence ∙ 1000 | Mean NFκB response ([4]; 1 µM, 7,5 h): 9166.88 GFP+-cells/confluence ∙ 1000 | Mean NFκB response ([4]; 1 µM, 10,5 h): 19295.79 GFP+-cells/confluence ∙ 1000 | Mean NFκB response ([4]; 1 µM, 13,5 h): 27594.44 GFP+-cells/confluence ∙ 1000 | Mean NFκB response ([4]; 1 µM, 16,6 h): 34636.12 GFP+-cells/confluence ∙ 1000 | Mean NFκB response ([4]; 1 µM, 19,5 h): 38741.56 GFP+-cells/confluence ∙ 1000 | Mean NFκB response ([4]; 1 µM, 22,5 h): 41845.76 GFP+-cells/confluence ∙ 1000 | Mean NFκB response ([4]; 1 µM, 3 h): 3525.65 GFP+-cells/confluence ∙ 1000 | Mean NFκB response ([4]; 1 µM, 6 h): 5348.79 GFP+-cells/confluence ∙ 1000 | Mean NFκB response ([4]; 1 µM, 9 h): 14582.16 GFP+-cells/confluence ∙ 1000 | Mean NFκB response ([4]; 1 µM, 12 h): 23573.19 GFP+-cells/confluence ∙ 1000 | Mean NFκB response ([4]; 1 µM, 15 h): 31392.99 GFP+-cells/confluence ∙ 1000 | Mean NFκB response ([4]; 1 µM, 18 h): 36648.57 GFP+-cells/confluence ∙ 1000 | Mean NFκB response ([4]; 1 µM, 21 h): 40465.37 GFP+-cells/confluence ∙ 1000 | Mean NFκB response ([4]; 1 µM, 24 h): 42894.68 GFP+-cells/confluence ∙ 1000 | NF-κB activity (inflammatory response to ionomycin/PMA) ([4]; HEK293 NF-κB reporter cells, compounds at recommended concentrations, imaged over 24 h, n = 3): tended to enhance NF-κB activity | ΔTm at 20 µM (AURKA): -1.49 °C | Apoptosis induction [AI] (HEK293T cells [5]): 0.80 and 0.89 and 0.91 and 1.07 and 1.28 and 0.67 | ΔTm at 20 µM (MAPK1): -0.22 °C
